How the values were obtained:
[1] = test system: Corticosterone generation; assay: Assessment test of steroid hormone synthesis inhibition (Corticosterone generation in rat adrenal gland cells stimulated with cAMP); format: cell-based; conditions: inhibition rate of 10 μM test article to Corticosterone generation, 2 hours with cAMP
Protocol: Assessment Test of Steroid Hormone Synthesis Inhibition
Control examples 1 to 4: Control example 1 was Example 350 of Patent Document 2. Control examples 2 to 4 were synthesized according to Patent Document 2.
Adrenal glands were taken out from rats, and removed excess connective tissues, adiposes and membranes in D-MEM. The adrenal glands were transferred to polytubes, and quickly segmentalized with scissors. Thereto was added D-MEM containing 1 mg/mL collagenase and […] DNase I, and then the mixture was shaken at 37° C. for 10 minutes in 80 times/minute. Then, the mixture was pipetted by 1 mL truncated pipette tip, and shaken again under the same condition. After 10 minutes, the mixture was pipetted again by 1 mL pipette tip, and the cell suspension was filtered through metal mesh. The filtrate was centrifuged at 4° C. for 5 minutes in 500 g. The supernatant was removed, and thereto was added a mixed solution of 0.16 M NH4Cl and 0.17 M Tris-HCl in 3 mL. The mixture was let stand on ice for 5 minutes, and then centrifuged under the same condition. Then, the supernatant was removed and then thereto was added D-MEM. The cell suspension was prepared and centrifuged under the same condition. Again, the supernatant was removed and then thereto was added D-MEM to give a cell suspension. The cell suspension was filtered by Cell Strainer (BD Falcon®). The filtrate was centrifuged under the same condition. After the completion of the centrifugation, the supernatant was removed, and thereto was added D-MEM containing 1% Penicillin Streptomycin Mixed Solution and 10% FBS. The mixture was seeded in Multiple well plate for adhesive cell culture, 96 wells (IWAKI) in 10000 cells/well, and incubated at 37° C. overnight in CO2 incubator.
Test article concentrations were prepared in DMSO to 2000 μM, and D-MEM containing 20 μM test article in D-MEM was prepared.
Cell-seeded plate was incubated overnight, and then the medium was removed and thereto was added D-MEM containing 20 μM test article in 50 μL/well. Then, to the mixture was promptly added D-MEM containing 20 μM cAMP in 50 μL/well so that the final concentration of the test article was 10 μM. After the addition of 2 types of D-MEM, the mixture was incubated at 37° C. for 2 hours in CO2 incubator. After 2 hours, the supernatant (50 μL) of the medium was collected. For cells, the cell toxicity of the test article was assessed according to a conventional method using Cell Titer-Glo® (Promega). For the collected supernatant, the Corticosterone concentration in the supernatant was determined according to a conventional method using Corticosterone EIA kit (Cayman).
The inhibition rate of 10 μM test article to Corticosterone generation was calculated according to the following formula confirming that the cell toxicity by the test article was not recognized.

[2] = test system: rat lung membrane SMBS; assay: Receptor-binding assessment test of compounds using rat lung membranes ([125I]-iodocyanopindolol ligand binding assay); conditions: ratio of inhibiting specific binding of [125I]-iodocyanopindolol to rat lung membrane SMBS; test compound 1 μM
Protocol: Receptor-Binding Assessment Test of Compounds Using Rat Lung Membranes
The assessment test was carried out according to the method of Sugasawa, T. et al., J. Biol. Chem., 272, 21244-21252 (1997).
Preparation of Rat Lung Membranes
Lung taken out from SD male rat (7-week old under test, Charles River Laboratories Japan, Inc.) was removed trachea and blood vessels to shred and washed with iced tris-saline buffer (10 mM tris hydrochloric acid-154 mM sodium chloride, pH7.4). The resultant was homogenized by Hiscotron with ice-cold tris-saline buffer containing a homogenization buffer (1 mM ethylenediaminetetraacetic acid (EDTA), 1 mM 4-(2-aminoethyl)benzenesulfonyl fluoride (AEBSF), 5 μg/ml aprotinin, 5 μg/ml leupeptine) (maximum rate: 1 minute). The supernatant after low-speed centrifugation (1500×g, 20 minutes, 4° C.) was ultracentrifuged (100000×g, 20 minutes, 4° C.), and the pellet was suspended in tris-saline buffer to store at −80° C. The protein concentrations were determined by Bio-Rad Protein Assay Kit using bovine serum albumin (BSA) as a standard.
To each well in protein-nonabsorptive round-bottom 96-well assay plate (commercially available from Iwaki Glass Co., Ltd.) were added tris-saline buffer (200 μl) containing 1 nM [^125I]-iodocyanopindolol (commercially available from Amersham plc), 10 μM serotonine, 20 μm dl-propranolol, 10 μM phentolamine, 1.1 mM ascorbic acid and 100 μg lung membrane, and the mixture was pipetted to combine and then incubated at 37° C. for 30 minutes. The test compounds were dissolved in 100% dimethyl sulfoxide solution, and thereto was added 2 μl (final DMSO concentration: 1%). In order to calculate nonspecific binding amounts, to the mixture was added L-threo-3-(3,4-dihydroxyphenyl)-N-[3-(4-fluorophenyl)propyl]serine pyrrolidine amide at 100 μM of the final concentration as an alternative to the test compounds. During this time, 100 μl of 0.3% polyethyleneimine (PEI)/tris-saline buffer was added to MultiScreen plate (96-well B glass fiber, Millipore Cat. No. MAFB NOB10), and incubated for over 30 minutes. The resultant was filtered with aspiration (aspiration by the addition of 200 μl iced tris-saline buffer) to wash, and the reaction solutions on 96-well assay plate were filtered with aspiration to wash four times on MultiScreen plate. B glass fiber filter paper at the bottom of MultiScreen plate was punched out, and γ-ray doses of [^125I]-iodocyanopindolol trapped on the filter paper were determined as binding amounts. The binding amounts in the presence of DMSO (final concentration: 1%) were total binding amounts, and the binding amounts in the presence of 100 μM L-threo-3-(3,4-dihydroxyphenyl)-N-[3-(4-fluorophenyl)propyl]serine pyrrolidine amide were nonspecific binding amounts. The values subtracted the nonspecific binding amounts from the total binding amounts were the specific binding amounts. The binding activity of a compound was calculated according to the following formula, which was shown in the ratio of inhibiting the specific binding of [^125I]-iodocyanopindolol to rat lung membrane SMBS by the test compound.

[3] = test system: Guinea Pig Late Asthma Model; assay: Assessment of compounds in guinea pig late asthma model; format: in vivo; conditions: 3 mg/kg orally one hour before antigen challenge
Protocol: Assessment of Compounds in Guinea Pig Late Asthma Model
The assessment was carried out using a compound obtained in Example 1.
Hartley male guinea pigs (commercially available from Japan SLC, Inc.) were pre-bred about 1 week after arrival, and then exposed by inhalation to 2% (w/v) ovalbumin (OA) saline in a plastic box (4 guinea pigs/box) for 5 minutes using a ultrasonic nebulizer (OMRON NE-U12, condition: maximum nebulizing amounts, maximum air volume), and sensitized (day 0). The same operation was carried out on day 7. On day 14 or 15, each guinea pig was administered 2% OA by inhalation for 5 minutes to initiate a response (challenge). […]
A determination and analysis of respiratory function were carried out according to the method of Penny A. Hutson et al. Am Rev Respir Dis 1988 137, 548-557. The respiratory function was determined before the antigen challenge (before drug administration) and 5 minutes and 1, 2, 3, 4, 5, 6, 7 and 8 hours after the antigen challenge, and wave profiles were imported using MacLab Chart v3.4 (AD Instruments) and analyzed later. […] The sRaw/TV values subtracting the former values were plotted against measured times, and each area under the curve (AUC4-8hr) of each animal was calculated to compare each other in the range of 4 to 8 hours after the antigen challenge. […]

Row | Binding Activity (%) (1 μM) [2] | Structure (SMILES) | inhibition at 10 µM [1] | AUC4-8 hr ((sRaw/TV) · h) ([3]; OA-sensitized Hartley male guinea pigs, 4 to 8 hours after challenge) | Improvement Rate (%) ([3]; versus control group (0.5% MC), AUC4-8hr, p<0.01 Dunnett's test)
1 | 89% | CNC(=O)NCCn1c(-c2ccc(N3CCOCC3)nn2)cs/c1=N\c1cncc(C(F)(F)F)c1 [Example 15] | 11% | – | –
2 | 93% | CNC(=O)NCCn1c(-c2ccc(N3CCOCC3)nn2)cs/c1=N\c1ccccc1Cl [Example 8] | -12% | – | –
3 | 88% | CCNC(=O)NCCn1c(-c2ccc(N3CCOCC3)nn2)cs/c1=N\c1ccc(Cl)cc1 [Example 11] | -8% | – | –

The next lines start with the compound.

Row | Structure (SMILES) | Binding Activity (%) (1 μM) [2] | inhibition at 10 µM [1] | AUC4-8 hr ((sRaw/TV) · h) ([3]; OA-sensitized Hartley male guinea pigs, 4 to 8 hours after challenge) | Improvement Rate (%) ([3]; versus control group (0.5% MC), AUC4-8hr, p<0.01 Dunnett's test)
4 | CCNC(=O)NCCn1c(-c2ccc(N3CCOCC3)nn2)cs/c1=N\c1cccc(F)c1 [Example 5] | 83% | -28% | – | –
5 | CNC(=O)NCCn1c(-c2ccc(N3CCOCC3)nn2)cs/c1=N\c1cccc(F)c1 [Example 1, N-{2-[(2Z)-2-[(3-Fluorophenyl)imino]-3-[6-(morpholin-4-yl)pyridazinyl]-1,3-thiazol-3(2H)-yl]ethyl}-N′-methylurea] | 103% | -2% | 0.411 (sRaw/TV) · h | 47%
6 | CCNC(=O)NCCn1c(-c2ccc(N3CCOCC3)nn2)cs/c1=N\c1ccc(F)cc1 [Example 7] | 82% | 15% | – | –
7 | CNC(=O)NCCn1c(-c2ccc(N3CCOCC3)nn2)cs/c1=N\c1ccccc1F [Example 2] | 75% | -8% | – | –

Source: US20110039848A1, “FIVE-MEMBERED RING COMPOUND” (priority 2008, published 2011)
